Several values for one entry are separate records, joined by “and”; a condition that tells them apart may be missing. Equal entries are not always repeated. Where two headings read alike, the source gives them in different places.

The target of series [1] is T1, human OGG1 enzyme (Homo sapiens, UniProt O15527). Put plainly: OGG1 glycosylase activity assay (enzyme inhibition, APE1-coupled fluorescence). It counts as biochemical.
Series [2] addresses T1, human OGG1 enzyme. Put plainly: Differential scanning fluorimetry (DSF) thermal shift assay. It counts as binding. Also noted: ∆Tm (K): unit of the concentration uncertain. The protocol: The temperature was increased from 20 °C to 85 °C with 10 readings/degree. Tm values were calculated using an excel template and fitting to the Boltzmann equation in Prism v.6.07 (GraphPad Software).
On the technique in general: DSF heats the sample and reads unfolding from a dye or from intrinsic fluorescence.

For series [3], the system named is NF-κB activation in HEK293T pGF NF-κB cells. Put plainly: TNF-α induced NF-κB activation assay. It counts as cell-based. As to conditions: Homo sapiens, HEK-293T; NFκB activation assay; ± SD; read-out: pEC50 (converted). The protocol:
The inhibition of TNF-α induced NF-κB activation was measured in HEK293T cells transfected with the pGreenfire NF-κB plasmid. This is a plasmid that has NF-κB response elements (TRE) coupled to GFP and luciferase expression. When the NF-κB is activated by TNF-α, it binds to the TRE and induces GFP expression, and the fluorescence can be measured in a plate reader. The cells were authenticated with STR profiling, frozen down and these stocks were used in experiments. The HEK293T pGF NF-κB cells were kept in DMEM with 5% FBS and 1% P/S but, when seeded for the assay the medium was changed to DMEM FluoroBrite with 1% dialyzed FBS. All cell culture reagents were purchased from Thermo Fisher Scientific. Compounds were nano-dispensed (Echo acoustic dispenser) in 96-well, black/clear, assay plates (Corning #3904), duplicate plates, in 8-points dose-response curves, 1:2 dilutions, with DMSO compensation (0.3% DMSO). Cells were seeded at 30000 cells/well in medium containing 10 ng/mL of TNF-α (Sigma-Aldrich), except negative control wells which only contained cells in medium. Cells were cultured for 24 hours in a humidified incubator at 37 °C with 5% CO2 after which the GFP fluorescence was measured in a Sense plate reader (Hidex) with ex485/em535. The RFU data from the duplicate plates were combined to calculate % inhibition of NF-κB activation and IC50-values were calculated using XLfit (IDBS). In parallel with the NF-κB assay, a CellTiterGlo (Promega) cell viability assay was run to exclude compounds affecting cell viability. Compounds were nano-dispensed (Echo acoustic dispenser) in assay plates in 11-points dose-response curves, 1:3 dilutions, without DMSO compensation, with duplicates on the same plate. Cells were seeded at 7500 cells/well in 25 µL medium (DMEM FluoroBrite with 1% dialyzed FBS) containing 10 ng/mL TNF-α and cultured for 24 hours, with column 24 containing only culture medium. After equilibration to room temperature, the CellTiterGlo reagents were mixed and 25 µL/well were added to the cell plate. After 2 min mixing of the plate on an orbital shaker, the plate was incubated for 10 min at room temperature followed by luminescence reading in Sense. The cell viability was calculated compared to untreated control wells and the EC50 values were determined in XLfit (IDBS). […]

For another series, the system named is A2780 cells. Put plainly: Cancer cell viability assay (resazurin), A2780. In kind it is cell-based. As to conditions: two independent experiments; for percentage cell viability: A2780, 100 μM, 100 µM; for viability at 100 µM: Homo sapiens, A2780, A2780, 100 μM, read-out: percentage cell viability. The protocol:
(§1) Three different cancer cell lines A2780 (ovarian cancer, ECACC 93112519), A549 (lung cancer, ATCC 60150896) and HCT116 (colon cancer, ATCC CCL-247), and one immortalized fibroblast cell line (BJhTERT) as control, were seeded in black/clear 384-well plates (Corning #3764), 50 µL/well, containing 11 concentrations, nano-dispensed, dose-response curves of the test compounds. A2780, HCT116, and HEK293T cell lines were authenticated with STR profiling, frozen down, and these stocks were used in experiments. The A2780 cells were cultured in RPMI 1640, the A549 and BJhTERT cells in DMEM, and the HCT116 cells in McCoys 5 A medium. All media were supplemented with 10% FBS and 1% P/S. All cell culture media, additives, and reagents were purchased from Thermo Fisher Scientific. The cell plates were incubated 72 hours in a humidified incubator at 37 °C with 5% CO2, after which resazurin (Sigma-Aldrich), 10 µL/well, was added to a final concentration of 10 µg/mL. The plates were incubated for 6 hours with resazurin followed by fluorescence readings in a Sense plate reader (Hidex), resorufin protocol (ex 544 nm/em 595 nm). The cell viability was calculated compared to untreated control wells and the EC50 values were determined in XLfit (IDBS).
(Alamar Blue is a resazurin reagent that responds to reducing activity.)

The subject of a further series is A549 cells. Put plainly: Cancer cell viability assay (resazurin), A549. It counts as cell-based. The note with it: two independent experiments; for percentage cell viability: A549, 100 μM, 100 µM; for viability at 100 µM: Homo sapiens, A549, A549, 100 μM, read-out: percentage cell viability. As for the experimental part:
as §1

The subject of another series is HCT116 cells. Put plainly: Cancer cell viability assay (resazurin), HCT116. The note with it: two independent experiments; for percentage cell viability: HCT116, 100 μM, 100 µM; for viability at 100 µM: Homo sapiens, HCT-116, HCT116, 100 μM, read-out: percentage cell viability. It counts as cell-based. The protocol: as §1
The nature of series [4]: Cell viability assay (resazurin), BJhTERT non-transformed control. It counts as cell-based. As to conditions: human, BJhTERT, 100 μM, two independent experiments; read-out: percentage cell viability. The protocol: (§2) A2780, HCT116, and HEK293T cell lines were authenticated with STR profiling, frozen down, and these stocks were used in experiments. […] All media were supplemented with 10% FBS and 1% P/S. All cell culture media, additives, and reagents were purchased from Thermo Fisher Scientific. The cell plates were incubated 72 hours in a humidified incubator at 37 °C with 5% CO2, after which resazurin (Sigma-Aldrich), 10 µL/well, was added to a final concentration of 10 µg/mL. […] The cell viability was calculated compared to untreated control wells and the EC50 values were determined in XLfit (IDBS).

The subject of a further series is BJhTERT cells. Described as above. In kind it is cell-based. As to conditions: BJhTERT, 100 μM, two independent experiments. As for the experimental part: as §2
The mark [5] stands for this setting: Table S5, ± SD, read-out: pIC50 (converted).
Where [6] appears, read: 99 (unit uncertain) as printed in sheet footnote.

T1 sequence (O15527 whole entry): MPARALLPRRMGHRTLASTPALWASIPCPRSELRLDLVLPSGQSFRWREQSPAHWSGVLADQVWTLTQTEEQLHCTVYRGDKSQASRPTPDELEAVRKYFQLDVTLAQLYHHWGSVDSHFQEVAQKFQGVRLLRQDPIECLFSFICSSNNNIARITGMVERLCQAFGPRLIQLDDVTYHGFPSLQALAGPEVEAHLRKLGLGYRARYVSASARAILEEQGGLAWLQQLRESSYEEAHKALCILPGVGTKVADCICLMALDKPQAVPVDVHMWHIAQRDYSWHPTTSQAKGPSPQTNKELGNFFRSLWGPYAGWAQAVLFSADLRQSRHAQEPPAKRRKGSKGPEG

Turning to `O=C(Cc1ccc(-n2nc(Cl)c3ccccc32)cc1)Nc1noc2c1CCCC2` [compound 12], at human OGG1 enzyme [1] (setting [5]), the IC50 is 10.5 µM. Further, the “∆Tm (K)” value on human OGG1 enzyme [2] (99 μM) is 2.3 K. Moreover, the EC50 in series [3] is 5.5 µM. Besides, the percentage cell viability in the series with A2780 cells is on record as 0.88%; in the series with A549 cells it was 10.09%; in the series with HCT116 cells, 2.49%; with BJhTERT cells, 28.88%. Further, the viability (in general, the share of living cells, or the viability signal relative to a control) at 100 µM in the series on A2780 cells is 1.08%; in the series on A549 cells it was 12.3%; with HCT116 cells it was 3.25%. For the same compound, the viability at 72 h, 100 µM in series [4] stood at 30.1%.
Consider `O=C(Cc1ccc(-n2ncc3c2CNCC3)cc1)Nc1noc2c1CCCC2` [compound 15], for which the EC50 in series [3] is 13.2 µM.
Regarding `Cc1[nH]c(Br)nc1-c1ccc(CC(=O)Nc2noc3c2CCCC3)cc1` [compound 21], the IC50 at human OGG1 enzyme [1] (setting [5]) was 2.09 µM. The “∆Tm (K)” value at human OGG1 enzyme [2] (99 μM) was 5.9 K. Besides, the EC50 in series [3] was 11.5 µM. In addition, the percentage cell viability turned out to be 6.18% in the series with A2780 cells, 31.92% with A549 cells, 47.52% with HCT116 cells and 76% in the series with BJhTERT cells. Moreover, the viability at 100 µM was 4.62% in the series on A2780 cells, 23.9% in the series with A549 cells and 38.9% in the series with HCT116 cells. Besides, in series [4], the viability at 72 h, 100 µM was found to be 63.3%.
Consider `Cc1cc(C)n(-c2ccc(CC(=O)Nc3noc4c3CCCC4)cc2)n1` [compound 7], for which the “OGG1 inhibition, dose-response (Figure2C)” value was 16.25 and 10.96 on human OGG1 enzyme [1] (Concentration (M) 9.67e-7); 24.11 and 22.26 on human OGG1 enzyme [1] (Concentration (M) 1.93e-6); 37.42 and 38.76 at human OGG1 enzyme [1] (Concentration (M) 3.87e-6); 52.82 and 50.97 on human OGG1 enzyme [1] (Concentration (M) 7.73e-6); 74.43 and 67.46 at human OGG1 enzyme [1] (Concentration (M) 1.55e-5); 80.92 and 75.35 at human OGG1 enzyme [1] (Concentration (M) 3.09e-5). For the same compound, the “OGG1 inhibition, dose-response (Figure2C)” value was 85.03 and 86.63 on human OGG1 enzyme [1] (Concentration (M) 6.19e-5); 92.57 and 92.28 at human OGG1 enzyme [1] (Concentration (M) 0.000124); 92.32 and 95.26 on human OGG1 enzyme [1] (Concentration (M) 0.000248); 96.86 and 92.16 at human OGG1 enzyme [1] (Concentration (M) 0.000495). Further, the IC50 at human OGG1 enzyme [1] (read-out: IC50) amounted to 6.6 µM. The “∆Tm (K)” value is 5.5 K and 5.5 ± 1.2 K at human OGG1 enzyme [2] (99 μM); 5.5 ± 1.2 K at human OGG1 enzyme [2] (setting [6]). In addition, the ΔTm on human OGG1 enzyme [2] (concentration not given) was 5.5 K. Besides, the EC50 in series [3] was 35.5 µM.
In the case of `Cc1cc(C)n(-c2cc(F)c(CC(=O)Nc3noc4c3CCCC4)c(F)c2)n1` [compound 8], the IC50 at human OGG1 enzyme [1] (Table 1, mean ± SD, at least three independent replicates, read-out: pIC50 (converted)) was 6.46 µM. Besides, the “∆Tm (K)” value on human OGG1 enzyme [2] (99 μM) and on human OGG1 enzyme [2] (setting [6]) was 5.4 ± 0.5 K throughout. Besides, the EC50 in series [3] is 11.2 µM. For the same compound, the percentage cell viability with A2780 cells is reported as 19.16%; in the series with A549 cells, 33.07%; in the series on HCT116 cells it was 43.25%; with BJhTERT cells it was 42.84%. The viability at 100 µM was 17.4% in the series with A2780 cells, 32.8% in the series on A549 cells and 35.4% with HCT116 cells. For the same compound, the viability at 72 h, 100 µM in series [4] came to 40.1%.
Consider `O=C(Cc1ccc(-n2ncc3c2CCNC3)cc1)Nc1noc2c1CCCC2` [compound 16], for which the IC50 on human OGG1 enzyme [1] (setting [5]) is above 100 µM. Besides, in series [3], the EC50 is above 31.6 µM.
Turning to `Cc1nn(-c2ccc(CC(=O)Nc3noc4c3CCCC4)cc2)c2ccccc12` [compound 10], the IC50 on human OGG1 enzyme [1] (setting [5]) is 1.29 µM. Moreover, on human OGG1 enzyme [2] (99 μM), the “∆Tm (K)” value was 4.8 ± 0.4 K. In series [3], the EC50 is 6.61 µM. In addition, the percentage cell viability came to 1.45% with A2780 cells, 6.63% in the series on A549 cells, 2.45% with HCT116 cells and 8.77% in the series on BJhTERT cells. In addition, the viability at 100 µM with A2780 cells is 0.84%; in the series with A549 cells, 5.97%; with HCT116 cells, 2%. For the same compound, the viability at 72 h, 100 µM in series [4] stood at 8.08%.
Turning to `Cc1nc(-c2ccc(CC(=O)Nc3noc4c3CCCC4)nc2)c(C)[nH]1` [compound 22], the IC50 at human OGG1 enzyme [1] (setting [5]) is 1.95 µM. The “∆Tm (K)” value at human OGG1 enzyme [2] (99 μM) is 6.3 K. For the same compound, the EC50 in series [3] was 28.2 µM. The percentage cell viability in the series with A2780 cells was 65.16%; with A549 cells it was 96.69%; in the series with HCT116 cells, 64.01% and 103.96%; in the series with BJhTERT cells, 76.15% and 96.63%. The viability at 100 µM in the series with A2780 cells came out at 50.2%; with A549 cells, 79.4%.
Turning to `O=C(Cc1ccc(-n2ncc3ccncc32)cc1)Nc1noc2c1CCCC2` [compound 13], the IC50 on human OGG1 enzyme [1] (setting [5]) was 47.9 µM. In addition, the EC50 in series [3] was 14.1 µM.
As to `Cc1nc(-c2ccc(CC(=O)Nc3noc4c3CCCC4)c(C)c2)c(C)[nH]1` [compound 19], the IC50 at human OGG1 enzyme [1] (setting [5]) was 0.813 µM. Also, at human OGG1 enzyme [2] (99 μM), the “∆Tm (K)” value is 7.4 ± 0.2 K. The EC50 in series [3] is 10.5 µM. Further, the results for the percentage cell viability in the series on A2780 cells, in the series on HCT116 cells and in the series with BJhTERT cells were 2.96%, 6.65% and 24.77%, respectively. The values for the viability at 100 µM in the series on A2780 cells and with HCT116 cells were 2.43% and 5.31%, respectively. In addition, in series [4], the viability at 72 h, 100 µM came out at 15.2%.
Consider `Cc1nn(-c2ccc(CC(=O)Nc3noc4c3CCCC4)cc2)c2ccc(N)cc12` [compound 14], for which the IC50 at human OGG1 enzyme [1] (setting [5]) was 9.77 µM. Moreover, the EC50 in series [3] is 6.61 µM. Besides, the percentage cell viability is reported as 5.95% with A2780 cells, 28.85% with A549 cells, 30.89% in the series with HCT116 cells and 41.42% in the series with BJhTERT cells. Further, the viability at 100 µM turned out to be 3.81% with A2780 cells, 28.3% in the series on A549 cells and 26% in the series with HCT116 cells. For the same compound, the viability at 72 h, 100 µM in series [4] was 38.5%.

For the origin of these results see publication PMC11836371, “Virtual fragment screening for DNA repair inhibitors in vast chemical space” (Nature Communications, 2025).
